The assay deals with T1, human neutrophil elastase (HNE) (Homo sapiens, UniProt P08246).
T1 construct: purchased Sigma E8140
T1 sequence (P08246 30-247 limits assumed): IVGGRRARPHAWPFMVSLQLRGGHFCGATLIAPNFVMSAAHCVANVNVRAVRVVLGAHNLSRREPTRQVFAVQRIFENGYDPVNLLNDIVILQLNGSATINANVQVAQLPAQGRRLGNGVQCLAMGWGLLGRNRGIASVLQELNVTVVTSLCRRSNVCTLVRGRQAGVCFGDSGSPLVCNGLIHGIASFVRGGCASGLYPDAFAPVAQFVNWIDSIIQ
The assay can be described thus: HNE enzyme assay (human neutrophil elastase enzyme activity assay). The assay is classed as biochemical. The conditions noted are these: human leukocyte elastase 0.00072 U/mL; substrate MeOSuc-Ala-Ala-Pro-Val-AMC 100 μM; 25° C. for 30 minutes; at least two separate experiments; read-out: HNE inhibition (HNE enzyme inhibition, IC50 values). The method, then: Compounds of the present invention were tested for potency in a human neutrophil elastase (HNE) enzyme activity assay.
Assays were performed in 96-well plates in a total assay volume of 100 μL. The final concentration of elastase enzyme (human leukocyte elastase, Sigma E8140) was 0.00072 U/mL. The peptide substrate (MeOSuc-Ala-Ala-Pro-Val-AMC, Calbiochem #324740) was used at a final concentration of 100 μM. The final concentration of DMSO was 1% in the assay buffer (0.05M Tris.HCl, 0.1M NaCl, 0.1M CaCl2, 0.0005% brij-35, pH 7.5). The enzymatic reaction was started by addition of the enzyme and incubated at 25° C. for 30 minutes. After incubation, the reaction was stopped by addition of soybean trypsin inhibitor (Sigma T9003) at a final concentration of 50 μg/well. Fluorescence was measured using a Molecular Devices fluorescence plate reader using 380 nm excitation and 460 nm emission wavelengths.
A dose response to each compound was performed and the effect of compound in each experiment was expressed as a percentage inhibition of the control enzyme fluorescence. Dose response curves were plotted and compound potency (IC50) was determined. Compounds were tested in at least two separate experiments.

IC50 data for 16 compounds are collected here from patent US10172830B2, “Pyrazolone compounds having human neutrophil elastase inhibitory properties” (CHIESI FARMACEUTICI S.P.A., priority 2016, dated 2019).

Some results are limits rather than exact numbers.

As for `CCOC(=O)c1c(-c2ccnn2-c2ccc(C#N)cc2)n(C)n(-c2cccc(C(F)(F)F)c2)c1=O` [Example 1, 2′-(4-Cyano-phenyl)-2-methyl-5-oxo-1-(3-trifluoromethyl-phenyl)-2,5-dihydro-1H,2′H-[3,3′]bipyrazolyl-4-carboxylic acid ethyl ester], the IC50 was less than 1 nM.
For `CN1CCC(NC(=O)c2c(-c3ccnn3-c3ccc(C#N)cc3)n(C)n(-c3cccc(C(F)(F)F)c3)c2=O)CC1` [Example 2, 2′-(4-Cyano-phenyl)-2-methyl-5-oxo-1-(3-trifluoromethyl-phenyl)-2,5-dihydro-1H,2′H-[3,3′]bipyrazolyl-4-carboxylic acid (1-methyl-piperidin-4-yl)-amide] the value was 1 to 10 nM; for `CCNC(=O)c1c(-c2ccnn2-c2ccc(C#N)cc2)n(C)n(-c2cccc(C(F)(F)F)c2)c1=O` [Example 3, 2′-(4-Cyano-phenyl)-2-methyl-5-oxo-1-(3-trifluoromethyl-phenyl)-2,5-dihydro-1H,2′H-[3,3′]bipyrazolyl-4-carboxylic acid ethylamide], less than 1 nM.
For the compound `Cn1c(-c2ccnn2-c2ccc(C#N)cc2)c(C(=O)N[C@@H]2C[C@@H]3CN(C(=O)OC(C)(C)C)C[C@@H]3C2)c(=O)n1-c1cccc(C(F)(F)F)c1` [Example 4, (3aS,5R,6aR)-5-{[2′-(4-Cyano-phenyl)-2-methyl-5-oxo-1-(3-trifluoromethyl-phenyl)-2,5-dihydro-1H,2′H-[3,3′]bipyrazolyl-4-carbonyl]-amino}-hexahydro-cyclopenta[c]pyrrole-2-carboxylic acid tert-butyl ester], the 50% inhibitory concentration (IC50) was less than 1 nM.
As to `C[C@H](NC(=O)c1c(-c2ccnn2-c2ccc(C#N)cc2)n(C)n(-c2cccc(C(F)(F)F)c2)c1=O)c1ncc(CN(C)C)o1` [Example 5, 2′-(4-Cyano-phenyl)-2-methyl-5-oxo-1-(3-trifluoromethyl-phenyl)-2,5-dihydro-1H,2′H-[3,3′]bipyrazolyl-4-carboxylic acid [(S)-1-(5-dimethylaminomethyl-oxazol-2-yl)-ethyl]-amide], the IC50 was less than 1 nM.
Take `CN(C)CC(=O)N1CCC(NC(=O)c2c(-c3ccnn3-c3ccc(C#N)cc3)n(C)n(-c3cccc(C(F)(F)F)c3)c2=O)CC1` [Example 6, 2′-(4-Cyano-phenyl)-2-methyl-5-oxo-1-(3-trifluoromethyl-phenyl)-2,5-dihydro-1H,2′H-[3,3′]bipyrazolyl-4-carboxylic acid [1-(2-dimethylamino-acetyl)-piperidin-4-yl]-amide]: the IC50 was less than 1 nM.
For `C[C@H](NC(=O)c1c(-c2ccnn2-c2ccc(C#N)cc2)n(C)n(-c2cccc(C(F)(F)F)c2)c1=O)C(=O)N(C)CC1CCN(C)CC1` [Example 7, 2′-(4-Cyano-phenyl)-2-methyl-5-oxo-1-(3-trifluoromethyl-phenyl)-2,5-dihydro-1H,2′H-[3,3′]bipyrazolyl-4-carboxylic acid {(S)-1-[methyl-(1-methyl-piperidin-4-ylmethyl)-carbamoyl]-ethyl}-amide], the IC50 is less than 1 nM.
As for `C[C@H](NC(=O)c1c(-c2ccnn2-c2ccc(C#N)cc2)n(C)n(-c2cccc(C(F)(F)F)c2)c1=O)c1nnc(CN(C)C)o1` [Example 8, 2′-(4-Cyano-phenyl)-2-methyl-5-oxo-1-(3-trifluoromethyl-phenyl)-2,5-dihydro-1H,2′H-[3,3′]bipyrazolyl-4-carboxylic acid [(S)-1-(5-dimethylaminomethyl-[1,3,4]oxadiazol-2-yl)-ethyl]-amide], the figure is less than 1 nM; as for `CN1CCC(CN(C)C(=O)C(C)(C)NC(=O)c2c(-c3ccnn3-c3ccc(C#N)cc3)n(C)n(-c3cccc(C(F)(F)F)c3)c2=O)CC1` [Example 9, 2′-(4-Cyano-phenyl)-2-methyl-5-oxo-1-(3-trifluoromethyl-phenyl)-2,5-dihydro-1H,2′H-[3,3′]bipyrazolyl-4-carboxylic acid {1-methyl-1-[methyl-(1-methyl-piperidin-4-ylmethyl)-carbamoyl]-ethyl}-amide], less than 1 nM; as for `CN(C)Cc1cnc(C(C)(C)NC(=O)c2c(-c3ccnn3-c3ccc(C#N)cc3)n(C)n(-c3cccc(C(F)(F)F)c3)c2=O)o1` [Example 10, 2′-(4-Cyano-phenyl)-2-methyl-5-oxo-1-(3-trifluoromethyl-phenyl)-2,5-dihydro-1H,2′H-[3,3′]bipyrazolyl-4-carboxylic acid [1-(5-dimethylaminomethyl-oxazol-2-yl)-1-methyl-ethyl]-amide], less than 1 nM.
For `CC(C)[C@H](NC(=O)c1c(-c2ccnn2-c2ccc(C#N)cc2)n(C)n(-c2cccc(C(F)(F)F)c2)c1=O)c1ncc(CN(C)C)o1` [Example 11, 2′-(4-Cyano-phenyl)-2-methyl-5-oxo-1-(3-trifluoromethyl-phenyl)-2,5-dihydro-1H,2′H-[3,3′]bipyrazolyl-4-carboxylic acid [(S)-1-(5-dimethylaminomethyl-oxazol-2-yl)-2-methyl-propyl]-amide] the value was less than 1 nM; for `CN1CCC(NC(=O)[C@H]2CC[C@H](NC(=O)c3c(-c4ccnn4-c4ccc(C#N)cc4)n(C)n(-c4cccc(C(F)(F)F)c4)c3=O)CC2)CC1` [Example 12, 2′-(Trans-4-cyano-phenyl)-2-methyl-5-oxo-1-(3-trifluoromethyl-phenyl)-2,5-dihydro-1H,2′H-[3,3′]bipyrazolyl-4-carboxylic acid [4-(1-methyl-piperidin-4-ylcarbamoyl)-cyclohexyl]-amide], less than 1 nM.
On to `CN1CCC(OC(=O)[C@H]2CC[C@H](NC(=O)c3c(-c4ccnn4-c4ccc(C#N)cc4)n(C)n(-c4cccc(C(F)(F)F)c4)c3=O)CC2)CC1` [Example 13, Trans-4-{[2′-(4-cyano-phenyl)-2-methyl-5-oxo-1-(3-trifluoromethyl-phenyl)-2,5-dihydro-1H,2′H-[3,3′]bipyrazolyl-4-carbonyl]-amino}-cyclohexanecarboxylic acid 1-methyl-piperidin-4-yl ester], for which the IC50 is less than 1 nM.
Regarding `CN(C)C1CCN(C(=O)[C@H]2CC[C@H](NC(=O)c3c(-c4ccnn4-c4ccc(C#N)cc4)n(C)n(-c4cccc(C(F)(F)F)c4)c3=O)CC2)CC1` [Example 14, 2′-(Trans-4-cyano-phenyl)-2-methyl-5-oxo-1-(3-trifluoromethyl-phenyl)-2,5-dihydro-1H,2′H-[3,3′]bipyrazolyl-4-carboxylic acid [4-(4-dimethylamino-piperidine-1-carbonyl)-cyclohexyl]-amide], the IC50 was less than 1 nM.
`CN(C)CCOC(=O)[C@H]1CC[C@H](NC(=O)c2c(-c3ccnn3-c3ccc(C#N)cc3)n(C)n(-c3cccc(C(F)(F)F)c3)c2=O)CC1` [Example 15, Trans-4-{[2′-(4-cyano-phenyl)-2-methyl-5-oxo-1-(3-trifluoromethyl-phenyl)-2,5-dihydro-1H,2′H-[3,3′]bipyrazolyl-4-carbonyl]-amino}-cyclohexanecarboxylic acid 2-dimethylamino-ethyl ester]: the IC50 was less than 1 nM.
With `CN(C)CC(=O)O[C@H]1CC[C@H](NC(=O)c2c(-c3ccnn3-c3ccc(C#N)cc3)n(C)n(-c3cccc(C(F)(F)F)c3)c2=O)CC1` [Example 16, Dimethylamino-acetic acid trans-4-{[2′-(4-cyano-phenyl)-2-methyl-5-oxo-1-(3-trifluoromethyl-phenyl)-2,5-dihydro-1H,2′H-[3,3′]bipyrazolyl-4-carbonyl]-amino}-cyclohexyl ester], the IC50 was less than 1 nM.
